Assay results: patent US8283361B2 (AstraZeneca AB, priority 2008, dated 2012)

Each compound was assayed against S. aureus GyrB ATPase (Staphylococcus aureus, UniProt P0A0K8) (assay: biochemical). Settings: compound at 1 μM; one value per test if tested more than once; read-out: % Inhibition of S. aureus GyrB ATPase.
Outline: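 IC50 values derive from 10-point titrations of compound (in DMSO). Phosphate formed from 250 μM ATP was quantified by acidic molybdate/malachite green after quenching.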

S. aureus GyrB ATPase, sequence (P0A0K8 whole entry): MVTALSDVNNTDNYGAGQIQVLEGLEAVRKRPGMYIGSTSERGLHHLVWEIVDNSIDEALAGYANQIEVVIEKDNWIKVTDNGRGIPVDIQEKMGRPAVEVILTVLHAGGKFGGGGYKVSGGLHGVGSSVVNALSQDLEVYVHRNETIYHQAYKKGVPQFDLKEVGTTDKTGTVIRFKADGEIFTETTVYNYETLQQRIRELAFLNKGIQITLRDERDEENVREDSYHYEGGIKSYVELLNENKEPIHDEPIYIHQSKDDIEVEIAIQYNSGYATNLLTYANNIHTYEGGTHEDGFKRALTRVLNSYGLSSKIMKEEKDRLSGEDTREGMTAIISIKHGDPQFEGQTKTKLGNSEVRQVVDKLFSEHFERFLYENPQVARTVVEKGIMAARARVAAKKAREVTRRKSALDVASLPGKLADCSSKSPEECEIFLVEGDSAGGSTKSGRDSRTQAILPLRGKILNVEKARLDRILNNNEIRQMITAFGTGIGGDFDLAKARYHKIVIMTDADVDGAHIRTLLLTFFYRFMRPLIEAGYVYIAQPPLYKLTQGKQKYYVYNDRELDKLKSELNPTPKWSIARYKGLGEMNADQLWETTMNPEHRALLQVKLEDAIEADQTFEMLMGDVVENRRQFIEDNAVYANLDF
S. aureus GyrB ATPase, sequence (P0AES4 whole entry, further chain): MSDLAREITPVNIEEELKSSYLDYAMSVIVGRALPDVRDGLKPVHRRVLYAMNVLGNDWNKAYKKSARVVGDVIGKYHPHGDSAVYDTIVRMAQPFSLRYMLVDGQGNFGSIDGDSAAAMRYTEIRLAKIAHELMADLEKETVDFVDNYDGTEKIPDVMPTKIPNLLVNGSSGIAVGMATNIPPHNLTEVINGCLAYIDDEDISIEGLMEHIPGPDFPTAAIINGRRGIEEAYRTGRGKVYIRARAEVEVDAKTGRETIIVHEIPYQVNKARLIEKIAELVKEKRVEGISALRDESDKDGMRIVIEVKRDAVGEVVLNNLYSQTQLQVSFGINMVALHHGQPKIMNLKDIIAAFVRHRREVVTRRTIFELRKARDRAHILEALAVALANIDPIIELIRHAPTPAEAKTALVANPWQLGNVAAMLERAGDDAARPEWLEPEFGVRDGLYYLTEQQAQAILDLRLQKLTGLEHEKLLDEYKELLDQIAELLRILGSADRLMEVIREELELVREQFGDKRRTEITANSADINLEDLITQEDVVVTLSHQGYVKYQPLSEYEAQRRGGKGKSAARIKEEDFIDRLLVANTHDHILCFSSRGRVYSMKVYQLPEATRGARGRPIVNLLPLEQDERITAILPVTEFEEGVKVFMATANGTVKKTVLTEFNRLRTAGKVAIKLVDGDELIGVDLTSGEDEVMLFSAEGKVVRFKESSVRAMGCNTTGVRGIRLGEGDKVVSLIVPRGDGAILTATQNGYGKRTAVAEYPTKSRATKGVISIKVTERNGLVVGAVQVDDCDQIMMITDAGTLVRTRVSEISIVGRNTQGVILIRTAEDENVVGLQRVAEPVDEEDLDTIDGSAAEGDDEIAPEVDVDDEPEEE

Compound	inhibition at 1 µM [%]
CCCNC(=O)Nc1cc(-c2nc(C(F)(F)F)cs2)c(-c2ccc3c(c2)c(=O)c(C(=O)NCCO)cn3CCN(C)C)cn1 [Example 203, 1-(2-(dimethylamino)ethyl)-N-(2-hydroxyethyl)-4-oxo-6-(6-(3-propylureido)-4-(4-(trifluoromethyl)thiazol-2-yl)pyridin-3-yl)-1,4-dihydroquinoline-3-carboxamide]	87
CCCNC(=O)Nc1cc(-c2nc(C(F)(F)F)cs2)c(-c2ccc3c(c2)c(=O)c(C(=O)NCCO)cn3CCN2CCOCC2)cn1 [Example 205, N-(2-hydroxyethyl)-1-(2-morpholinoethyl)-4-oxo-6-(6-(3-propylureido)-4-(4-(trifluoromethyl)thiazol-2-yl)pyridin-3-yl)-1,4-dihydroquinoline-3-carboxamide]	94
CCCNC(=O)Nc1cc(-c2nc(C(F)(F)F)cs2)c(-c2ccc3c(c2)c(=O)c(C(=O)NCCO)cn3C2CCOCC2)cn1 [Example 206, N-(2-hydroxyethyl)-4-oxo-6-(6-(3-propylureido)-4-(4-(trifluoromethyl)thiazol-2-yl)pyridin-3-yl)-1-(tetrahydro-2H-pyran-4-yl)-1,4-dihydroquinoline-3-carboxamide]	92
CCCNC(=O)Nc1cc(-c2nc(C(F)(F)F)cs2)c(-c2ccc3c(c2)c(=O)c(C(=O)NCCO)cn3CCOC)cn1 [Example 207, N-(2-hydroxyethyl)-1-(2-methoxyethyl)-4-oxo-6-(6-(3-propylureido)-4-(4-(trifluoromethyl)thiazol-2-yl)pyridin-3-yl)-1,4-dihydroquinoline-3-carboxamide]	93
COCCn1cc(C(=O)NCCO)c(=O)c2cc(-c3cnc(NC(=O)NC(C)C)cc3-c3nc(C(F)(F)F)cs3)ccc21 [Example 208, N-(2-hydroxyethyl)-6-(6-(3-isopropylureido)-4-(4-(trifluoromethyl)thiazol-2-yl)pyridin-3-yl)-1-(2-methoxyethyl)-4-oxo-1,4-dihydroquinoline-3-carboxamide]	97
CC(C)NC(=O)Nc1cc(-c2nc(C(F)(F)F)cs2)c(-c2ccc3c(c2)c(=O)c(C(=O)NCCO)cn3C2CCOCC2)cn1 [Example 210, N-(2-hydroxyethyl)-6-(6-(3-isopropylureido)-4-(4-(trifluoromethyl)thiazol-2-yl)pyridin-3-yl)-4-oxo-1-(tetrahydro-2H-pyran-4-yl)-1,4-dihydroquinoline-3-carboxamide]	93
CC(C)NC(=O)Nc1cc(-c2nc(C(F)(F)F)cs2)c(-c2ccc3c(c2)c(=O)c(C(=O)NCCO)cn3CCN2CCN(C)CC2)cn1 [Example 212]	94
CCCNC(=O)Nc1cc(-c2nc(C(F)(F)F)cs2)c(-c2ccc3c(c2)c(=O)c(C(=O)NCCO)cn3CCC2CCN(C)CC2)cn1 [Example 213]	94
CCCNC(=O)Nc1cc(-c2nc(C(F)(F)F)cs2)c(-c2ccc3c(c2)c(=O)c(C(=O)NCCO)cn3CCC2CCOCC2)cn1 [Example 214, N-(2-hydroxyethyl)-4-oxo-6-(6-(3-propylureido)-4-(4-(trifluoromethyl)thiazol-2-yl)pyridin-3-yl)-1-(2-(tetrahydro-2H-pyran-4-yl)ethyl)-1,4-dihydroquinoline-3-carboxamide]	118
CC(C)NC(=O)Nc1cc(-c2nc(C(F)(F)F)cs2)c(-c2ccc3c(c2)c(=O)c(C(=O)NCCO)cn3CCC2CCN(C)CC2)cn1 [Example 216, N-(2-hydroxyethyl)-6-(6-(3-isopropylureido)-4-(4-(trifluoromethyl)thiazol-2-yl)pyridin-3-yl)-1-(2-(1-methylpiperidin-4-yl)ethyl)-4-oxo-1,4-dihydroquinoline-3-carboxamide]	109
CCCNC(=O)Nc1cc(-c2nc(C(F)(F)F)cs2)c(-c2ccc3c(c2)c(=O)c(C(=O)NCCN(C)C)cn3CCN(C)C)cn1 [Example 219, N,1-bis(2-(dimethylamino)ethyl)-4-oxo-6-(6-(3-propylureido)-4-(4-(trifluoromethyl)thiazol-2-yl)pyridin-3-yl)-1,4-dihydroquinoline-3-carboxamide]	86
CC(C)NC(=O)Nc1cc(-c2nc(C(F)(F)F)cs2)c(-c2ccc3c(c2)c(=O)c(C(=O)NCCN(C)C)cn3CCC2CCN(C)CC2)cn1 [Example 226]	94
CC(C)NC(=O)Nc1cc(-c2nc(C(F)(F)F)cs2)c(-c2ccc3c(c2)c(=O)c(C(=O)NCCN(C)C)cn3CCN2CCN(C)CC2)cn1 [Example 227, N-(2-(dimethylamino)ethyl)-6-(6-(3-isopropylureido)-4-(4-(trifluoromethyl)thiazol-2-yl)pyridin-3-yl)-1-(2-(4-methylpiperazin-1-yl)ethyl)-4-oxo-1,4-dihydroquinoline-3-carboxamide]	91
CCCNC(=O)Nc1cc(-c2nc(C(F)(F)F)cs2)c(-c2ccc3c(c2)c(=O)c(C(=O)NCCN(C)C)cn3CCC2CCOCC2)cn1 [Example 232, N-(2-(dimethylamino)ethyl)-4-oxo-6-(6-(3-propylureido)-4-(4-(trifluoromethyl)thiazol-2-yl)pyridin-3-yl)-1-(2-(tetrahydro-2H-pyran-4-yl)ethyl)-1,4-dihydroquinoline-3-carboxamide]	98
CCNC(=O)Nc1cc(-c2nc(C(F)(F)F)cs2)c(-c2ccc3c(c2)c(=O)c(C(=O)O)cn3C[C@@H]2CCN(CCN3CCOCC3)C2)cn1 [Example 237, (R)-6-(6-(3-ethylureido)-4-(4-(trifluoromethyl)thiazol-2-yl)pyridin-3-yl)-1-((1-(2-morpholinoethyl)pyrrolidin-3-yl)methyl)-4-oxo-1,4-dihydroquinoline-3-carboxylic acid]	103
CCNC(=O)Nc1cc(-c2nc(C(F)(F)F)cs2)c(-c2ccc3c(c2)c(=O)c(C(=O)O)cn3C[C@H]2CCN(CCN3CCOCC3)C2)cn1 [Example 238, (S)-6-(6-(3-ethylureido)-4-(4-(trifluoromethyl)thiazol-2-yl)pyridin-3-yl)-1-((1-(2-morpholinoethyl)pyrrolidin-3-yl)methyl)-4-oxo-1,4-dihydroquinoline-3-carboxylic acid]	97
CCNC(=O)Nc1cc(-c2nc(C(F)(F)F)cs2)c(-c2ccc3c(c2)c(=O)c(C(=O)O)cn3C[C@@H]2CCCNC2)cn1 [Example 242, (R)-1-((1-piperidin-3-yl)methyl)-6-(6-(3-ethylureido)-4-(4-(trifluoromethyl)thiazol-2-yl)pyridin-3-yl)-4-oxo-1,4-dihydroquinoline-3-carboxylic acid]	104
CCNC(=O)Nc1cc(-c2nc(C(F)(F)F)cs2)c(-c2ccc3c(c2)c(=O)c(C(=O)O)cn3C[C@H]2CCNC2)cn1 [Example 243, (S)-6-(6-(3-ethylureido)-4-(4-(trifluoromethyl)thiazol-2-yl)pyridin-3-yl)-4-oxo-1-(pyrrolidin-3-ylmethyl)-1,4-dihydroquinoline-3-carboxylic acid]	116
CCNC(=O)Nc1cc(-c2nc(C(F)(F)F)cs2)c(-c2ccc3c(c2)c(=O)c(C(=O)O)cn3[C@@H]2CCNC2)cn1 [Example 244, (R)-6-(6-(3-ethylureido)-4-(4-(trifluoromethyl)thiazol-2-yl)pyridin-3-yl)-4-oxo-1-(pyrrolidin-3-yl)-1,4-dihydroquinoline-3-carboxylic acid]	111
CCNC(=O)Nc1cc(-c2nc(C(F)(F)F)cs2)c(-c2ccc3c(c2)c(=O)c(C(=O)O)cn3[C@H]2CCCNC2)cn1 [Example 245, (S)-6-(6-(3-ethylureido)-4-(4-(trifluoromethyl)thiazol-2-yl)pyridin-3-yl)-4-oxo-1-(piperidin-3-yl)-1,4-dihydroquinoline-3-carboxylic acid]	105
CCNC(=O)Nc1cc(-c2nc(C(F)(F)F)cs2)c(-c2ccc3c(c2)c(=O)c(C(=O)O)cn3[C@@H]2CCN(C)C2)cn1 [Example 246, (R)-6-(6-(3-ethylureido)-4-(4-(trifluoromethyl)thiazol-2-yl)pyridin-3-yl)-1-(1-methylpyrrolidin-3-yl)-4-oxo-1,4-dihydroquinoline-3-carboxylic acid]	104
CCNC(=O)Nc1cc(-c2nc(C(F)(F)F)cs2)c(-c2ccc3c(c2)c(=O)c(C(=O)O)cn3C[C@@H]2CCCN(C)C2)cn1 [Example 247, (R)-6-(6-(3-ethylureido)-4-(4-(trifluoromethyl)thiazol-2-yl)pyridin-3-yl)-1-((1-methylpiperidin-3-yl)methyl)-4-oxo-1,4-dihydroquinoline-3-carboxylic acid]	115
CCNC(=O)Nc1cc(-c2nc(C(F)(F)F)cs2)c(-c2ccc3c(c2)c(=O)c(C(=O)O)cn3[C@H]2CCCN(C)C2)cn1 [Example 248, (S)-6-(6-(3-ethylureido)-4-(4-(trifluoromethyl)thiazol-2-yl)pyridin-3-yl)-1-(1-methylpiperidin-3-yl)-4-oxo-1,4-dihydroquinoline-3-carboxylic acid]	103
CCNC(=O)Nc1cc(-c2nc(C(F)(F)F)cs2)c(-c2ccc3c(c2)c(=O)c(C(=O)O)cn3C[C@H]2CCN(CC)C2)cn1 [Example 249, (S)-1-((1-ethylpyrrolidin-3-yl)methyl)-6-(6-(3-ethylureido)-4-(4-(trifluoromethyl)thiazol-2-yl)pyridin-3-yl)-4-oxo-1,4-dihydroquinoline-3-carboxylic acid]	113
CCNC(=O)Nc1cc(-c2nc(C(F)(F)F)cs2)c(-c2ccc3c(c2)c(=O)c(C(=O)O)cn3[C@@H]2CCN(CC)C2)cn1 [Example 250, (R)-1-(1-ethylpyrrolidin-3-yl)-6-(6-(3-ethylureido)-4-(4-(trifluoromethyl)thiazol-2-yl)pyridin-3-yl)-4-oxo-1,4-dihydroquinoline-3-carboxylic acid]	112
CCNC(=O)Nc1cc(-c2nc(C(F)(F)F)cs2)c(-c2ccc3c(c2)c(=O)c(C(=O)O)cn3C[C@@H]2CCCN(CC)C2)cn1 [Example 251, (R)-1-((1-ethylpiperidin-3-yl)methyl)-6-(6-(3-ethylureido)-4-(4-(trifluoromethyl)thiazol-2-yl)pyridin-3-yl)-4-oxo-1,4-dihydroquinoline-3-carboxylic acid]	113
